This note sets out measurements from patent publication US20170166555A1, “FUNCTIONALISED AND SUBSTITUTED INDOLES AS ANTI-CANCER AGENTS” (Novogen Limited, priority 2013, published 2017).

Each structure is given as a SMILES string. Where two headings read alike, the source gives them in different places.

What all share (test): Anti-proliferative assay, cell-titre luminescent reagent, 72 h (GVK-BIO)
Format in all cases: cell-based

For assay [1], the system named is A549 non-small cell lung carcinoma cells. The following applies: Homo sapiens, read-out: IC50/μM Lung (NSLC) A549. As to the method:
(§1) The ability of compounds 4001, 4002, 4008, 4010, 4011, 4013-4015, 4018, 4026, 4045-4113 and 4115-4127 to inhibit the proliferation of cancer cells representative of neuroblastoma, melanoma, prostate cancer, colorectal cancer, non-small cell lung carcinoma, and triple negative breast cancer was assessed. These studies were conducted by contract research (GVK-BIO). Briefly, a pre-determined number of cells as calculated from cell growth assays for each of the cell lines employed were seeded into their respective culture medium (using ATCC culture parameters—http://www.atcc.org) and cultured for 24 h at 37° C. and 5% CO2 in 96-well culture plates. Once attached, each cell line was then exposed to various concentrations of each respective analogue (30, 3, 0.3 and 0.03 μM for compounds in Tables 2, 3 and 4; 30, 10, 3, 1, 0.3 and 0.1 μM for compounds in Table 5), cultured for a further 72 h and exposed to cell-titre luminescent reagent (100 μL/well) for a further 30 min). Luminescence was captured using an EnVision multilabel reader and the data for each analogue concentration compared against no treatment control. For compounds in Tables 2-4, semi-log plots of Percent of Control versus concentration were prepared and IC50 determined using linear regression analysis. For compounds in Table 5, cell viability was normalized to control (vehicle alone) and dose-response curves, and half maximal effective concentration (EC50) values were determined using Graph Pad Prism 6 (nonlinear regression sigmoidal dose-response variable slope).

Assay [2] has as its system CaCo2 colorectal cancer cells. The following applies: Homo sapiens. The method, then:
as §1

Assay [3] has as its system DU145 prostate cancer cells. The following applies: Homo sapiens. As to the method: as §1
For assay [4], the system named is MDA-MB-231 triple negative breast cancer cells. The following applies: Homo sapiens. As to the method:
as §1

The subject of assay [5] is PC3 prostate cancer cells. The method, then: as §1
Assay [6] has as its system SK-Mel-28 melanoma cells. The following applies: Homo sapiens. As to the method: as §1
The subject of assay [7] is SK-N-SH neuroblastoma cells. As to conditions: Homo sapiens. The method, then: as §1
Where [8] appears, read: A549, 72 h, 30, 3, 0.3 and 0.03 μM, linear regression (Tables 2-4).
Where [9] appears, read: Caco-2, 72 h, 30, 3, 0.3 and 0.03 μM, linear regression (Tables 2-4).
Where [10] appears, read: DU-145, 72 h, 30, 3, 0.3 and 0.03 μM, linear regression (Tables 2-4).
The mark [11] stands for this setting: MDA-MB-231, 72 h, 30, 3, 0.3 and 0.03 μM, linear regression (Tables 2-4).
Where [12] appears, read: 30, 3, 0.3 and 0.03 μM, linear regression (Tables 2-4).
Setting [13] is: SK-MEL-28, 72 h, 30, 3, 0.3 and 0.03 μM, linear regression (Tables 2-4).
Where [14] appears, read: SK-N-SH, 30, 3, 0.3 and 0.03 μM, linear regression (Tables 2-4).
The mark [15] stands for this setting: A549, 72 h, 30, 10, 3, 1, 0.3 and 0.1 μM, nonlinear regression (Table 5).
The mark [16] stands for this setting: Caco-2, 72 h, 30, 10, 3, 1, 0.3 and 0.1 μM, nonlinear regression (Table 5).
The mark [17] stands for this setting: DU-145, 72 h, 30, 10, 3, 1, 0.3 and 0.1 μM, nonlinear regression (Table 5).
The mark [18] stands for this setting: MDA-MB-231, 72 h, 30, 10, 3, 1, 0.3 and 0.1 μM, nonlinear regression (Table 5).
Setting [19] is: 30, 10, 3, 1, 0.3 and 0.1 μM, nonlinear regression (Table 5).
The mark [20] stands for this setting: SK-MEL-28, 72 h, 30, 10, 3, 1, 0.3 and 0.1 μM, nonlinear regression (Table 5).
Where [21] appears, read: SK-N-SH, 30, 10, 3, 1, 0.3 and 0.1 μM, nonlinear regression (Table 5).

With `CN(C)CCCn1ccc2cc(Cc3ccc(C(=O)Nc4ccc(F)cc4)cc3)ccc21` [Compound 4077, 4-((1-(3-(dimethylamino)propyl)-1H-indol-5-yl)methyl)-N-(4-fluorophenyl)benzamide], the IC50 in assay [1] (setting [8]) was determined as 3.3 µM; in assay [2] (setting [9]) it was 3.3 µM; in assay [3] (setting [10]) it was 3.2 µM; in assay [4] (setting [11]) it was 3.4 µM; in assay [5] (setting [12]) it was 2.8 µM; in assay [6] (setting [13]), 2.7 µM. In assay [7] (setting [14]), the IC50 worked out at 3.1 µM.
Turning to `COc1ccc(NC(=O)c2ccc(Cc3ccc4c(ccn4CCCN(C)C)c3)cc2)cc1` [Compound 4078, 4-((1-(3-(dimethylamino)propyl)-1H-indol-5-yl)methyl)-N-(4-methoxyphenyl)benzamide], the IC50 in assay [1] (setting [8]) amounted to 1.4 µM; in assay [2] (setting [9]), 3.6 µM; in assay [3] (setting [10]) it was 1.4 µM; in assay [4] (setting [11]) it was 1.6 µM; in assay [5] (setting [12]) it was 1.2 µM; in assay [6] (setting [13]), 1.9 µM. The compound also registered an IC50 in assay [7] (setting [14]) of 6.5 µM.
In the case of `CN(C)CCCn1ccc2cc(Cc3ccc(C(=O)Nc4ccc5c(c4)OCO5)cc3)ccc21` [Compound 4079, N-(benzo[d][1, 3]dioxol-5-yl)-4-((1-(3-(dimethylamino)propyl)-1H-indol-5-yl)methyl)benzamide], the IC50 was 3.1 µM in assay [1] (setting [8]); over 30 µM in assay [2] (setting [9]); 3.1 µM in assay [3] (setting [10]); 4.3 µM in assay [4] (setting [11]); 1.8 µM in assay [5] (setting [12]); 2.8 µM in assay [6] (setting [13]). In assay [7] (setting [14]), the IC50 turned out to be 2.9 µM.
`CN(C)CCCn1ccc2cc(Cc3ccc(C(=O)Nc4cccc(F)c4)cc3)ccc21` [Compound 4080, 4-((1-(3-(dimethylamino)propyl)-1H-indol-5-yl)methyl)-N-(3-fluorophenyl)benzamide]: the IC50 in assay [1] (setting [8]) was 3.1 µM; in assay [2] (setting [9]) it was 3 µM; in assay [3] (setting [10]) it was 3.5 µM; in assay [4] (setting [11]), 3.2 µM; in assay [5] (setting [12]), 3 µM; in assay [6] (setting [13]), 3.1 µM. This compound came in with an IC50 in assay [7] (setting [14]) of 2.8 µM.
For `COc1cccc(NC(=O)c2ccc(Cc3ccc4c(ccn4CCCN(C)C)c3)cc2)c1` [Compound 4081, 4-((1-(3-(dimethylamino)propyl)-1H-indol-5-yl)methyl)-N-(3-methoxyphenyl)benzamide], the IC50 is 2.9 µM in assay [1] (setting [8]); 3.1 µM in assay [2] (setting [9]); 2.9 µM in assay [3] (setting [10]); 2.5 µM in assay [4] (setting [11]); 2.1 µM in assay [5] (setting [12]); 2.3 µM in assay [6] (setting [13]). Further, the IC50 in assay [7] (setting [14]) is 1.6 µM.
Turning to `Cc1c(C)n(CCCN(C)C)c2ccc(Cc3ccc(C(=O)Nc4ccc(F)cc4)cc3)cc12` [Compound 4082, 4-((1-(3-(dimethylamino)propyl)-2,3-dimethyl-1H-indol-5-yl)methyl)-N-(4-fluorophenyl)benzamide], the IC50 came to 4.9 µM in assay [1] (setting [15]); 4 µM in assay [2] (setting [16]); 2.6 µM in assay [3] (setting [17]); 4.2 µM in assay [4] (setting [18]); 3.9 µM in assay [5] (setting [19]); 4.6 µM in assay [6] (setting [20]). The IC50 in assay [7] (setting [21]) worked out at 4.8 µM.
Regarding `COc1ccc(NC(=O)c2ccc(Cc3ccc4c(c3)c(C)c(C)n4CCCN(C)C)cc2)cc1` [Compound 4083, 4-((1-(3-(dimethylamino)propyl)-2,3-dimethyl-1H-indol-5-yl)methyl)-N-(4-methoxyphenyl)benzamide], the IC50 in assay [1] (setting [15]) turned out to be 11.2 µM; in assay [2] (setting [16]), 11.9 µM; in assay [3] (setting [17]), 5.1 µM; in assay [4] (setting [18]), 13.1 µM; in assay [5] (setting [19]) it was 13.2 µM; in assay [6] (setting [20]) it was 4.7 µM. In assay [7] (setting [21]), this compound registered an IC50 of 3.3 µM.
Turning to `Cc1c(C)n(CCCN(C)C)c2ccc(Cc3ccc(C(=O)Nc4ccc5c(c4)OCO5)cc3)cc12` [Compound 4084, N-(benzo[d][1,3]dioxol-5-yl)-4-((1-(3-(dimethylamino)propyl)-2,3-dimethyl-1H-indol-5-yl)methyl)benzamide], the IC50 in assay [1] (setting [15]) was determined as 6 µM; in assay [2] (setting [16]), 7.1 µM; in assay [3] (setting [17]), 4.8 µM; in assay [4] (setting [18]), 6.5 µM; in assay [5] (setting [19]), 3.5 µM; in assay [6] (setting [20]), 5.5 µM. In assay [7] (setting [21]), this compound displayed an IC50 of 10.6 µM.
For `Cc1c(C)n(CCCN(C)C)c2ccc(Cc3ccc(C(=O)Nc4cccc(F)c4)cc3)cc12` [Compound 4085, 4-((1-(3-(dimethylamino)propyl)-2,3-dimethyl-1H-indol-5-yl)methyl)-N-(3-fluorophenyl)benzamide], the IC50 in assay [1] (setting [8]) turned out to be 10.1 µM; in assay [2] (setting [9]), 10.9 µM; in assay [3] (setting [10]) it was 11 µM; in assay [4] (setting [11]), 11.2 µM; in assay [5] (setting [12]) it was 10.1 µM; in assay [6] (setting [13]) it was 10.5 µM. The same compound gave an IC50 in assay [7] (setting [14]) of 9.8 µM.
With `COc1cccc(NC(=O)c2ccc(Cc3ccc4c(c3)c(C)c(C)n4CCCN(C)C)cc2)c1` [Compound 4086, 4-((1-(3-(dimethylamino)propyl)-2,3-dimethyl-1H-indol-5-yl)methyl)-N-(3-methoxyphenyl)benzamide], the IC50 in assay [1] (setting [15]) came to 5 µM; in assay [2] (setting [16]) it was 7.6 µM; in assay [3] (setting [17]) it was 4.3 µM; in assay [4] (setting [18]), 6.2 µM; in assay [5] (setting [19]) it was 4.8 µM; in assay [6] (setting [20]) it was 5.2 µM. In assay [7] (setting [21]), this compound gave an IC50 of 5.7 µM.
As to `Cc1c(C)n(CCCN(C)C)c2ccc(Cc3ccc(C(=O)Nc4ccccc4)cc3)cc12` [Compound 4087, 4-((1-(3-(dimethylamino)propyl)-2,3-dimethyl-1H-indol-5-yl)methyl)-N-phenylbenzamide], the IC50 in assay [1] (setting [15]) was determined as 8.9 µM; in assay [2] (setting [16]) it was 23.1 µM; in assay [3] (setting [17]), 7.1 µM; in assay [4] (setting [18]), 7.5 µM; in assay [5] (setting [19]), 7.4 µM; in assay [6] (setting [20]), 4.8 µM. In addition, the IC50 in assay [7] (setting [21]) is 5.6 µM.
Regarding `CN(C)CCCn1ccc2cc(Oc3ccc(C(=O)Nc4ccc(F)cc4)cc3)ccc21` [Compound 4088, 4-((1-(3-(dimethylamino)propyl)-1H-indol-5-yl)oxy)-N-(4-fluorophenyl)benzamide], the IC50 came to 3.4 µM in assay [1] (setting [8]); 4.1 µM in assay [2] (setting [9]); 3.3 µM in assay [3] (setting [10]); 3.8 µM in assay [4] (setting [11]); 3.5 µM in assay [5] (setting [12]); 4.3 µM in assay [6] (setting [13]). Also, the IC50 in assay [7] (setting [14]) is 3.4 µM.
Consider `COc1ccc(NC(=O)c2ccc(Oc3ccc4c(ccn4CCCN(C)C)c3)cc2)cc1` [Compound 4089, 4-((1-(3-(dimethylamino)propyl)-1H-indol-5-yl)oxy)-N-(4-methoxyphenyl)benzamide], for which the IC50 in assay [1] (setting [15]) was found to be 7.7 µM; in assay [2] (setting [16]) it was 13.2 µM; in assay [3] (setting [17]), 4.4 µM; in assay [4] (setting [18]), 5.2 µM; in assay [5] (setting [19]), 4.4 µM; in assay [6] (setting [20]) it was 4.3 µM. Also, the IC50 in assay [7] (setting [21]) came out at 4.4 µM.
Regarding `CN(C)CCCn1ccc2cc(Oc3ccc(C(=O)Nc4ccc5c(c4)OCO5)cc3)ccc21` [Compound 4090, N-(benzo[d][1,3]dioxol-5-yl)-4-((1-(3-(dimethylamino)propyl)-1H-indol-5-yl)oxy)benzamide], the IC50 in assay [1] (setting [15]) amounted to 8.4 µM; in assay [2] (setting [16]), 5.3 µM; in assay [3] (setting [17]), 4.6 µM; in assay [4] (setting [18]), 9.6 µM; in assay [5] (setting [19]), 2.5 µM; in assay [6] (setting [20]), 7.2 µM. The compound also showed an IC50 in assay [7] (setting [21]) of 6.3 µM.
Consider `CN(C)CCCn1ccc2cc(Oc3ccc(C(=O)Nc4cccc(F)c4)cc3)ccc21` [Compound 4091, 4-((1-(3-(dimethylamino)propyl)-1H-indol-5-yl)oxy)-N-(3-fluorophenyl)benzamide], for which the IC50 in assay [1] (setting [15]) turned out to be 9.5 µM; in assay [2] (setting [16]) it was 10.2 µM; in assay [3] (setting [17]), 10.6 µM; in assay [4] (setting [18]), 28.9 µM; in assay [5] (setting [19]), 19.6 µM; in assay [6] (setting [20]), 15.4 µM. This compound also returned an IC50 in assay [7] (setting [21]) of 9.7 µM.
